Consider four compounds from ChEMBL document CHEMBL5715939, “Aurora kinase inhibitors: a new class of targeted drugs in cancer” (Clin Lung Cancer, 2006).

Structures are written as SMILES.

In one data set the target is Aurora kinase B (Homo sapiens, UniProt Q96GD4). The data set can be described thus: Inhibition of human aurora B.
Another data set addresses T1, Aurora kinase C (Homo sapiens, UniProt Q9UQB9).
T1 sequence (Q9UQB9 whole entry): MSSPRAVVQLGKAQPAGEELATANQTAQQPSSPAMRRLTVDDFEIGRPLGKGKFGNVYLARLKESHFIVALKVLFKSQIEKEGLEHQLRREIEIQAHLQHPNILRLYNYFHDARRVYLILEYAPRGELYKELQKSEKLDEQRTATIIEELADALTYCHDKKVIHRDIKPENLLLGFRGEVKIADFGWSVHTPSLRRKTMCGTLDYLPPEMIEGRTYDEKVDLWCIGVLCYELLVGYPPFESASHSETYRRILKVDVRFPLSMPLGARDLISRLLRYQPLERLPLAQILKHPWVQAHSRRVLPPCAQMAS
The data set can be described thus: Inhibition of human aurora C.

Data set [1] addresses T2, Receptor-type tyrosine-protein kinase FLT3 (Homo sapiens, UniProt P36888).
T2 sequence (P36888 whole entry): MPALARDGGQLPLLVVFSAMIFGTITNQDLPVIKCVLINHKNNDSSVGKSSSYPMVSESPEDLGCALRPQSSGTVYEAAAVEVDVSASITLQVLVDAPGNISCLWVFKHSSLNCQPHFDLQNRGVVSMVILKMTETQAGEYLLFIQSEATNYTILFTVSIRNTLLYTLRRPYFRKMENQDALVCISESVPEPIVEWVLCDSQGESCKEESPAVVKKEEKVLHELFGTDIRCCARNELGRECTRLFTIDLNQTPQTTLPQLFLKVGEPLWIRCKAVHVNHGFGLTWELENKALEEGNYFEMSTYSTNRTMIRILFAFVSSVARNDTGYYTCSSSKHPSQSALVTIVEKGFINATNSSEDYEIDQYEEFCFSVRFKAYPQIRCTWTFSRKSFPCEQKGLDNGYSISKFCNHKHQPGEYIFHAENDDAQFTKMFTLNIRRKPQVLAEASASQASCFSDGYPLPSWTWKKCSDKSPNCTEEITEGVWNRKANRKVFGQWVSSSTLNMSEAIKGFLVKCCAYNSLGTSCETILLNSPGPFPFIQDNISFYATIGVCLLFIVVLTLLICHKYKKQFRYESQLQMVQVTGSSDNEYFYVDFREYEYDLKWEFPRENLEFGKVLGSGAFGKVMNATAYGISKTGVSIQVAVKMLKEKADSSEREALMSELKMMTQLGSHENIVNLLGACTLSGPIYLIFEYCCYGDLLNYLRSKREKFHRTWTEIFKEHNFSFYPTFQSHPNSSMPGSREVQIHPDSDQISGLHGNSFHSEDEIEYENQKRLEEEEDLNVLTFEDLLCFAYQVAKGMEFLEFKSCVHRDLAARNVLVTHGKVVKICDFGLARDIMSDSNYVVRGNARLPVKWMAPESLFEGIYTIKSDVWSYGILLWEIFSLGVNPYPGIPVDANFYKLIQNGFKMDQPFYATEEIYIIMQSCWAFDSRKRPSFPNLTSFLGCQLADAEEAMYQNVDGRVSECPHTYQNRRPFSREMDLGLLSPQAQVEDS
Briefly: Inhibition of human FLT3.

A short description of data set [2]: Cmax in plasma of human patient with advanced solid tumors at 0.5 to 12 mg/m2/hr, iv administered by continuous intravenous infusion over 5 days every 4 weeks. Format: ADME, organism-based. The conditions noted are these: dose 0.5-12 mg/m2/hr, time 5 day.
The nature of data set [3]: Half life in human patient with advanced solid tumors at 0.5 to 12 mg/m2/hr, iv administered by continuous intravenous infusion over 5 days every 4 weeks. Format: ADME, organism-based. To be noted: in vivo, dose 0.5-12 mg/m2/hr, time 5 day.

Aurora kinase B, sequence (Q96GD4 whole entry): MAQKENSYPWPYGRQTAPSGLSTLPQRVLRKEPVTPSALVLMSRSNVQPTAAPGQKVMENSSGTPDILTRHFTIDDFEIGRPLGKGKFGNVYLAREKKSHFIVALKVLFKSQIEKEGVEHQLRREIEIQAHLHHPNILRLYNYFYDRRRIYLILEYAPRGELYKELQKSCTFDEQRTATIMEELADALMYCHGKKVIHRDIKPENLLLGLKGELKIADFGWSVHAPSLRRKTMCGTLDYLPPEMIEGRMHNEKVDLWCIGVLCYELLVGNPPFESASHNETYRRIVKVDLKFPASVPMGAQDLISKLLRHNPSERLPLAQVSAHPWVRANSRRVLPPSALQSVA

Turning to `O=C(Nc1c[nH]nc1-c1nc2cc(CN3CCOCC3)ccc2[nH]1)NC1CC1` [AT-9283], at Aurora kinase B, the IC50 was less than 3 nM.

`CCN(CCCOc1ccc2c(Nc3cc(CC(=O)Nc4cccc(F)c4)n[nH]3)ncnc2c1)CCOP(=O)(O)O` [BARASERTIB] showed a Ki on Aurora kinase C of 17 nM.

For the compound `CCc1cccc(CC)c1NC(=O)N1Cc2n[nH]c(NC(=O)c3ccc(N4CCN(C)CC4)cc3)c2C1` [PHA-680632], the IC50 at Aurora kinase B was determined as 35 nM; in data set [1], 390 nM.

Consider `Cc1cc(Nc2cc(N3CCN(C)CC3)nc(Sc3ccc(NC(=O)C4CC4)cc3)n2)[nH]n1` [TOZASERTIB], for which, in data set [2], the Cmax was found to be 650 nM. In data set [3], this compound had a half-life of 15 h.
